This is an account of results in ChEMBL document CHEMBL5543109, “Novel β-Hairpin Antimicrobial Peptide Containing the β-Turn Sequence of -NG- and the Tryptophan Zippers Facilitate Self-Assembly into Nanofibers, Exhibiting Excellent Antimicrobial Performance” (J Med Chem, 2024).

The term MIC denotes the lowest concentration found to suppress growth. A lower MIC goes with inhibition by little substance.

In brackets after ≈: the same amount, converted by molar mass. Residues, ends and D or L forms follow the SMILES beside them. Some results are limits rather than exact numbers.

Type in all cases: functional
Experiment [1] has as its system Staphylococcus aureus. Put plainly: Antibacterial activity against Staphylococcus aureus ATCC 25923 incubated for 18 hrs by broth microdilution method. On the technique in general: In broth dilution the organism is exposed to a series of concentrations in liquid medium.
In another experiment the test system is Bacillus subtilis. Briefly: Antibacterial activity against Bacillus subtilis ATCC 23857 incubated for 18 hrs by broth microdilution method.
Experiment [2] deals with Staphylococcus epidermidis. Briefly: Antibacterial activity against Staphylococcus epidermidis ATCC 12228 incubated for 18 hrs by broth microdilution method.
The next experiment relates to Klebsiella pneumoniae. Put plainly: Antibacterial activity against Klebsiella pneumoniae ATCC 700603 incubated for 18 hrs by broth microdilution method.
For experiment [3], the system named is Escherichia coli. Briefly: Antibacterial activity against Escherichia coli ATCC 25922 incubated for 18 hrs by broth microdilution method.
The test system of another experiment is Pseudomonas aeruginosa. Put plainly: Antibacterial activity against Pseudomonas aeruginosa ATCC 27853 incubated for 18 hrs by broth microdilution method.
For experiment [4], the system named is Staphylococcus aureus. Put plainly: Antibacterial activity against methicillin resistant Staphylococcus aureus incubated for 18 hrs by broth microdilution method.
Experiment [5] deals with Staphylococcus aureus. Put plainly: Antibacterial activity against methicillin resistant Staphylococcus aureus 113 incubated for 18 hrs by broth microdilution method.
In experiment [6] the test system is Staphylococcus aureus. Briefly: Antibacterial activity against Staphylococcus aureus S794 incubated for 18 hrs by broth microdilution method.
Experiment [7] concerns Staphylococcus aureus. Put plainly: Antibacterial activity against Staphylococcus aureus S125 incubated for 18 hrs by broth microdilution method.
For experiment [8], the system named is Staphylococcus aureus. Put plainly: Antibacterial activity against methicillin resistant Staphylococcus aureus 75 incubated for 18 hrs by broth microdilution method.
For experiment [9], the system named is Staphylococcus aureus. Briefly: Antibacterial activity against Staphylococcus aureus incubated for 18 hrs by broth microdilution method.
Experiment [10] deals with Staphylococcus aureus. Put plainly: Antibacterial activity against kanamycin resistant Staphylococcus aureus incubated for 18 hrs by broth microdilution method.
Experiment [11] deals with Staphylococcus aureus. Briefly: Antibacterial activity against rifampicin resistant Staphylococcus aureus incubated for 18 hrs by broth microdilution method.
Experiment [12] deals with Escherichia coli. Briefly: Antibacterial activity against Escherichia coli incubated for 18 hrs by broth microdilution method.
Experiment [13] has as its system Escherichia coli. Briefly: Antibacterial activity against kanamycin resistant Escherichia coli incubated for 18 hrs by broth microdilution method.
For experiment [14], the system named is Escherichia coli. Put plainly: Antibacterial activity against rifampicin resistant Escherichia coli incubated for 18 hrs by broth microdilution method.

Turning to `CC[C@H](C)[C@H](N)C1=N[C@H](C(=O)N[C@@H](CC(C)C)C(=O)N[C@H](CCC(=O)O)C(=O)N[C@H](C(=O)N[C@H]2CCCCNC(=O)[C@H](CC(N)=O)NC(=O)[C@@H](CC(=O)O)NC(=O)[C@H](Cc3cnc[nH]3)NC(=O)[C@@H](Cc3ccccc3)NC(=O)[C@H]([C@@H](C)CC)NC(=O)[C@@H](CCCN)NC2=O)[C@@H](C)CC)CS1` [BACITRACIN] (HELM PEPTIDE1{[CC[C@H](C)[C@H](N)C1=N[C@H](C(=O)[*:2])CS1].L.[dE].I.K.[NCCC[C@@H](N[*:1])C(=O)[*:2]].I.[dF].H.[dD].N}$PEPTIDE1,PEPTIDE1,5:R3-11:R2$$$V2.0), the MIC is 32 µM (≈ 45.5 µg/mL) with Staphylococcus aureus [1]; greater than 128 µM with Bacillus subtilis; 16 µM (≈ 22.8 µg/mL) in experiment [2]; greater than 128 µM in the experiment on Klebsiella pneumoniae; greater than 128 µM in the experiment on Escherichia coli [3]; greater than 128 µM with Pseudomonas aeruginosa. Further, the MIC amounted to 0.5 µM (≈ 0.711 µg/mL) against Staphylococcus aureus [4]; 16 µM (≈ 22.8 µg/mL) in the experiment with Staphylococcus aureus [5]; 256 µM (≈ 364 µg/mL) against Staphylococcus aureus [6]; 8 µM (≈ 11.4 µg/mL) against Staphylococcus aureus [7]; 0.5 µM (≈ 0.711 µg/mL) against Staphylococcus aureus [8]; 32 µM (≈ 45.5 µg/mL) in the experiment with Staphylococcus aureus [9]. Moreover, the MIC against Staphylococcus aureus [10] amounted to 16 µM (≈ 22.8 µg/mL); against Staphylococcus aureus [11] it was 256 µM (≈ 364 µg/mL); in the experiment on Escherichia coli [12], 256 µM (≈ 364 µg/mL); against Escherichia coli [13] it was 256 µM (≈ 364 µg/mL); against Escherichia coli [14] it was 256 µM (≈ 364 µg/mL).

`CO[C@H]1/C=C/O[C@@]2(C)Oc3c(C)c(O)c4c(O)c(c(/C=N/N5CCN(C)CC5)c(O)c4c3C2=O)NC(=O)/C(C)=C\C=C\[C@H](C)[C@H](O)[C@@H](C)[C@@H](O)[C@@H](C)[C@H](OC(C)=O)[C@@H]1C` [RIFAMPIN]: the MIC in the experiment on Staphylococcus aureus [1] is less than 1 µM; in the experiment with Bacillus subtilis, less than 1 µM; in [2], less than 1 µM; in the experiment on Klebsiella pneumoniae, 64 µM (≈ 52.7 µg/mL); in the experiment with Escherichia coli [3], 16 µM (≈ 13.2 µg/mL); in the experiment on Pseudomonas aeruginosa, 32 µM (≈ 26.3 µg/mL). Moreover, the MIC against Staphylococcus aureus [4] worked out at 256 µM (≈ 211 µg/mL); in the experiment with Staphylococcus aureus [5], 0.5 µM (≈ 0.411 µg/mL); against Staphylococcus aureus [6], 32 µM (≈ 26.3 µg/mL); in the experiment with Staphylococcus aureus [7] it was 0.5 µM (≈ 0.411 µg/mL); with Staphylococcus aureus [8] it was 256 µM (≈ 211 µg/mL); in the experiment on Staphylococcus aureus [9] it was 0.5 µM (≈ 0.411 µg/mL). Also, the MIC stood at 4 µM (≈ 3.29 µg/mL) against Staphylococcus aureus [10]; 64 µM (≈ 52.7 µg/mL) in the experiment on Staphylococcus aureus [11]; 16 µM (≈ 13.2 µg/mL) with Escherichia coli [12]; 32 µM (≈ 26.3 µg/mL) in the experiment on Escherichia coli [13]; 256 µM (≈ 211 µg/mL) in the experiment on Escherichia coli [14].

Take `CN[C@@H]1[C@H](O[C@H]2[C@H](O[C@H]3[C@H](O)[C@@H](O)[C@H](N=C(N)N)[C@@H](O)[C@@H]3N=C(N)N)O[C@@H](C)[C@]2(O)C=O)O[C@@H](CO)[C@H](O)[C@H]1O` [STREPTOMYCIN]: the MIC against Staphylococcus aureus [4] was determined as 32 µM (≈ 18.6 µg/mL); in the experiment with Staphylococcus aureus [5], 64 µM (≈ 37.2 µg/mL); in the experiment with Staphylococcus aureus [6], 128 µM (≈ 74.4 µg/mL); with Staphylococcus aureus [7], 32 µM (≈ 18.6 µg/mL); against Staphylococcus aureus [8], 32 µM (≈ 18.6 µg/mL); against Staphylococcus aureus [9], 0.5 µM (≈ 0.291 µg/mL). Further, the MIC came out at 4 µM (≈ 2.33 µg/mL) with Staphylococcus aureus [10]; 2 µM (≈ 1.16 µg/mL) against Staphylococcus aureus [11]; 4 µM (≈ 2.33 µg/mL) against Escherichia coli [12]; 64 µM (≈ 37.2 µg/mL) against Escherichia coli [13]; 2 µM (≈ 1.16 µg/mL) in the experiment on Escherichia coli [14].

Take `C[C@@H](O)[C@H]1C(=O)N2C(C(=O)O)=C(S[C@@H]3CN[C@H](C(=O)N(C)C)C3)[C@H](C)[C@H]12` [MEROPENEM]: the MIC in the experiment with Staphylococcus aureus [4] was 32 µM (≈ 12.3 µg/mL); in the experiment with Staphylococcus aureus [5] it was 0.5 µM (≈ 0.192 µg/mL); against Staphylococcus aureus [6], 0.5 µM (≈ 0.192 µg/mL); in the experiment on Staphylococcus aureus [7], 0.5 µM (≈ 0.192 µg/mL); with Staphylococcus aureus [8], 128 µM (≈ 49.1 µg/mL); against Staphylococcus aureus [9] it was 0.5 µM (≈ 0.192 µg/mL). For the same compound, the MIC with Staphylococcus aureus [10], with Staphylococcus aureus [11], against Escherichia coli [12], against Escherichia coli [13] and in the experiment on Escherichia coli [14] was 0.5 µM (≈ 0.192 µg/mL) each time.

Regarding `NC[C@H]1O[C@H](O[C@H]2[C@H](O)[C@@H](O[C@H]3O[C@H](CO)[C@@H](O)[C@H](N)[C@H]3O)[C@H](N)C[C@@H]2N)[C@H](O)[C@@H](O)[C@@H]1O` [KANAMYCIN], the MIC against Staphylococcus aureus [1] was less than 1 µM; against Bacillus subtilis, less than 1 µM; in [2], greater than 128 µM; against Klebsiella pneumoniae, 64 µM (≈ 31 µg/mL); against Escherichia coli [3], 8 µM (≈ 3.88 µg/mL); against Pseudomonas aeruginosa it was greater than 128 µM. Moreover, the MIC in the experiment with Staphylococcus aureus [4] was found to be 256 µM (≈ 124 µg/mL); in the experiment on Staphylococcus aureus [5], 256 µM (≈ 124 µg/mL); against Staphylococcus aureus [6] it was 16 µM (≈ 7.75 µg/mL); in the experiment on Staphylococcus aureus [7], 256 µM (≈ 124 µg/mL); against Staphylococcus aureus [8], 256 µM (≈ 124 µg/mL); with Staphylococcus aureus [9], 0.5 µM (≈ 0.242 µg/mL). The MIC with Staphylococcus aureus [10] was found to be 256 µM (≈ 124 µg/mL); against Staphylococcus aureus [11], 4 µM (≈ 1.94 µg/mL); in the experiment on Escherichia coli [12] it was 4 µM (≈ 1.94 µg/mL); against Escherichia coli [13], 256 µM (≈ 124 µg/mL); against Escherichia coli [14], 4 µM (≈ 1.94 µg/mL).
